For data set [1], the system named is CVB3 Nancy. The data set is described as follows: Cytoprotection assay (MTT) in Vero cells infected with CVB3 Nancy. It counts as cell-based, Coxsackievirus B3. The conditions noted are these: for EC50: Enterovirus B, Vero cells infected with CVB3 Nancy at m.o.i. 0.001, 72 h, MTT, read-out: EC50 (50% cytoprotective concentration); for SI (selectivity index, ratio CC50/IC50): cytoprotection assay, CC50 72 h / EC50. How it is done: (§1) Vero cells were seeded in 96-well plates in 24 h before the assay. On the assay day, the cells were washed with saline and tested compounds in appropriate concentrations (300–3 μg/mL) in MEM without FBS were added to cells. No compounds were added to virus control wells. The plates were incubated for 1 h at 37 °C at 5% CO2. The cells were then infected with CVB3 Nancy (m.o.i range of 1–0.001) and incubated for 72 h at 37 °C at 5% CO2. No virus was added to the cytotoxicity control wells. Cell viability was then assessed using an MTT test with the following procedure. The cells were washed with saline, and a solution of 3-(4,5-dimethylthiazolyl-2) 2,5-diphenyltetrazolium bromide (ICN Biochemicals Inc., Aurora, OH, USA) ([…]) in MEM was added to the wells (100 µL per well). After 2 h of incubation at 37 °C in 5% CO2, the supernatant from wells was discarded, and the formazan residue was dissolved in DMSO (100 µL per well). The optical density of cells was then measured on a Multiskan multifunctional reader (Thermo Fisher Scientific, Shanghai, China) at a wavelength of 540 nm.
The cytoprotective activity of compounds was considered to be their ability to increase the values of OD compared to control wells (using only a virus, without drugs). Based on the results obtained, the values of IC50, i.e., the concentration of compounds that result in 50% cells protection were calculated for m.o.i. 0.001 using GraphPad Prism 6.01 software.

The nature of data set [2]: Cytotoxicity assay (MTT) in Vero cells. It counts as cell-based. The conditions noted are these: African green monkey; for CC50 at 24 h: 24 h incubation with the compound only; for CC50 at 72 h: 72 h incubation with the compound only. As to the method: as §1
(§2) The microtetrazolium test (MTT) was used to study the cytotoxicity of the compounds. The permissive cell line Vero was seeded in 96-well plates in Eagles minimal essential medium (MEM) supplemented with 10% FBS. After 24 h, the media were removed, and the wells were washed with saline. Compounds were dissolved in DMSO, and a series of two-fold dilutions of each compound in MEM without FBS were prepared and added to the cells in triplicates. […] The MTT was then performed as described above. Next, the optical density of cells was measured on a Multiskan multifunctional reader (Thermo Fisher Scientific, Shanghai, China) at a wavelength of 540 nm and plotted against the concentration of the compounds to generate the dose–response curve. The 50% cytotoxic dose (CC50) of each compound (i.e., the compound concentration that causes the death of 50% of cells in a culture, or decreases the optical density twice, as compared to the control wells) was calculated using a four-parameter logistic nonlinear regression model (GraphPad Prism 6.01).

Another data set has as its system Vero cells. The experiment in a line: Cytotoxicity assay (MTT) in Vero cells. Conditions: incubation with the compound only. It counts as cell-based. How it is done: as §1, §2
Data set [3] has as its system Coxsackievirus B3 (Nancy). The experiment in a line: Viral yield reduction assay in Vero cells. The conditions noted are these: for IC50: Enterovirus B, B3 / CVB3, viral yield reduction, Vero cells, CVB3 Nancy at m.o.i. 0.01, 24 h, read-out: IC50 (50% virus-inhibiting concentration); for SI (selectivity index, ratio CC50/IC50): viral yield reduction assay, CC50 24 h / IC50. Type of data set: cell-based. How it is done: Coxsackievirus B3 (CVB3, strain Nancy) was obtained from the collection of viruses of the Pasteur Institute (St. Petersburg, Russia). The permissive cell line Vero (ATCC #CCL-81) was used in the study. Infectious titers (in a 50%-tissue culture infection dose, TCID50) were determined in Vero cells for CVB3 by endpoint dilution assay using the following procedure. Permissive cells were seeded into 96-wells plates in Eagles minimal essential medium (MEM) supplemented with 5% fetal bovine serum (FBS). After 24 h, the medium was aspirated, the wells were washed with saline, fresh MEM without FBS was added to the wells and the cells were infected with serial tenfold dilutions of virus stocks (100 µL per well, 4 wells for each dilution). The plates were incubated at +37 °C in 5% CO2 and observed daily for cytopathic effect (CPE). After 72 h the viral titer was calculated in TCID50 using the method of Spearmen-Carber.
The antiviral activity of the compounds was evaluated using viral yield reduction assay. The respective permissive cell line Vero was seeded in MEM supplemented with 5% FBS in 24-well plates. When the cell confluence reached 100%, the compounds tested were dissolved in DMSO, and a series of three-fold dilutions of each compound in MEM without FBS was added to the cells, and incubated at 37 °C in 5% CO2. After 1 h, the media were discarded; equal volumes of fresh serial dilutions of each compound and viral suspension in MEM without FBS at […] were added. In control wells, only MEM without FBS was added. No compounds were added in the virus control wells. The plates were incubated at 4 °C for 1 h. The unbound virus was then washed away and, again, three-fold dilutions of each compound (the final concentration 50–0.6 µg/mL) in MEM without FBS were added to the wells. After 24 h of incubation at 37 °C in 5% CO2, the infectious titer of viral progeny (in TCID50) for each compound concentration, cell control, and virus control wells were determined in permissive cell lines by endpoint dilution assay as described above.
The titer of virus progeny was plotted against log concentration of the compounds tested to generate the dose–response curve. The 50% inhibition concentration (IC50) of each compound tested (i.e., the compound concentration that decreases the infectious viral progeny titer twice, as compared to the control wells) was calculated using a four-parameter logistic nonlinear regression model (GraphPad Prism 6.01).

Data set [4] relates to CVB3 Nancy. The experiment in a line: Thermostability assay (capsid binding, heat inactivation of virus). On the set-up: species or system Coxsackievirus B3. Conditions: pre-incubation 30 min at 37 °C, thermal gradient 37-55 °C for 2 min; for Effect on heat inactivation of CVB3 (capsid stabilization): versus virus control. As to the method: CVB3 Nancy was pre-incubated with the compounds tested or an equal volume of MEM (virus control) for 30 min at +37 °C in sterile thin-walled 200 μL PCR-tubes (7 tubes per each treatment condition) in BioRad CFX PCR-machine. The thermal gradient of 37–55 °C for 2 min was then applied, followed by rapid cooling to 4 °C. Subsequently, the infectious virus load at each thermal condition for each compound tested was quantified by end-point dilution assay.

Compound `O=C(O)c1ccc(NS(=O)(=O)c2ccc(NC(=O)c3ccccc3C(=O)O)cc2)cc1` [Compound 4, 2-((4-(N-(4-Carboxyphenyl)sulfamoyl)phenyl)carbamoyl)benzoic acid] yielded a melting point of 203 to 205 °C. In addition, in the data set on CVB3 Nancy [1], the EC50 worked out at 13.2 ± 1.49 µM and the “SI (selectivity index, ratio CC50/IC50)” value is >17.2. In data set [2], the CC50 at 24 h was > 1140 µM and the CC50 at 72 h was > 227 µM. In addition, the CC50 entry in the data set on Vero cells was “exceeded the maximum concentration used in the assay”. In data set [3], the IC50 amounted to 4.29 ± 1.79 µM and the “SI (selectivity index, ratio CC50/IC50)” value was >264. The “Temperature to which infectivity of CVB3 was preserved” value in the data set with CVB3 Nancy [4] (concentrations greatly exceeding IC50) was 52.4 °C. For the same compound, the “Effect on heat inactivation of CVB3 (capsid stabilization)” value in the data set with CVB3 Nancy [4] was “heat inactivation of CVB3 changed to higher temperatures”.

In turn, `O=C(O)c1ccc(NS(=O)(=O)c2ccc(N3C(=O)C4C5C=CC(C5)C4C3=O)cc2)cc1` (centres unmarked) [Compound 7c, 4-(4-(1,3-Dioxo-3a,4,7,7a-tetrahydro-1H-4,7-methanoisoindol-2(3H)-yl)phenylsulfonamido)benzoic acid] registered a melting point of 241 to 243 °C. Also, in the data set on CVB3 Nancy [1], the EC50 was < 8.44 µM and the “SI (selectivity index, ratio CC50/IC50)” value is recorded as >81.1. Also, in data set [2], the CC50 at 24 h was > 1140 µM and the CC50 at 72 h is > 684 µM. The half-maximal cytotoxic concentration (CC50) entry in the data set with Vero cells was “exceeded the maximum concentration used in the assay”. Besides, in data set [3], the IC50 was 19.6 ± 0.52 µM and the “SI (selectivity index, ratio CC50/IC50)” value is recorded as >58.

On to `O=C(O)c1ccc(NS(=O)(=O)c2ccc(N3C(=O)c4ccccc4C3=O)cc2)cc1` [Compound 2a, 4-(4-(1,3-Dioxoisoindolin-2-yl)phenylsulfonamido)benzoic acid, reference compound], for which, in the data set with CVB3 Nancy [1], the EC50 was < 8.76 µM and the “SI (selectivity index, ratio CC50/IC50)” value is recorded as >81.1. For the same compound, in data set [2], the 50% cytotoxic concentration (CC50) at 24 h is > 1180 µM and the cytotoxic concentration (CC50) at 72 h was > 710 µM. For the same compound, the half-maximal cytotoxic concentration (CC50) entry in the data set on Vero cells is reported as “exceeded the maximum concentration used in the assay”. In data set [3], the IC50 is 5.54 ± 0.89 µM and the “SI (selectivity index, ratio CC50/IC50)” value was >213. Moreover, the “Effect on heat inactivation of CVB3 (capsid stabilization)” value with CVB3 Nancy [4] was “heat inactivation of CVB3 changed to higher temperatures”.

One may read the CC50 as the concentration that lowers cell viability or growth by half. Read a high CC50 as better tolerance by the cells. As a reminder, the melting point is the temperature, or range, at which the solid turns liquid.
